Source: PMC8161055, “Synthesis and α-Glucosidase Inhibition Activity of 2-[3-(Benzoyl/4-bromobenzoyl)-4-hydroxy-1,1-dioxido-2H-benzo[e][1,2]thiazin-2-yl]-N-arylacetamides: An In Silico and Biochemical Approach” (Molecules, 2021)

Legend:
aldose-reductase = biological target: aldose-reductase; set-up: method as in PMID 22036211; settings: cited from earlier work
α-glucosidase = biological target: T1, α-glucosidase (Saccharomyces cerevisiae, UniProt P53341); test: biochemical; format: biochemical; settings: for inhibition at 200 µM: read-out: Inhibitions (%)
T1 construct: purchased Sigma-Aldrich, Munich, Germany
T1 sequence (P53341 whole entry): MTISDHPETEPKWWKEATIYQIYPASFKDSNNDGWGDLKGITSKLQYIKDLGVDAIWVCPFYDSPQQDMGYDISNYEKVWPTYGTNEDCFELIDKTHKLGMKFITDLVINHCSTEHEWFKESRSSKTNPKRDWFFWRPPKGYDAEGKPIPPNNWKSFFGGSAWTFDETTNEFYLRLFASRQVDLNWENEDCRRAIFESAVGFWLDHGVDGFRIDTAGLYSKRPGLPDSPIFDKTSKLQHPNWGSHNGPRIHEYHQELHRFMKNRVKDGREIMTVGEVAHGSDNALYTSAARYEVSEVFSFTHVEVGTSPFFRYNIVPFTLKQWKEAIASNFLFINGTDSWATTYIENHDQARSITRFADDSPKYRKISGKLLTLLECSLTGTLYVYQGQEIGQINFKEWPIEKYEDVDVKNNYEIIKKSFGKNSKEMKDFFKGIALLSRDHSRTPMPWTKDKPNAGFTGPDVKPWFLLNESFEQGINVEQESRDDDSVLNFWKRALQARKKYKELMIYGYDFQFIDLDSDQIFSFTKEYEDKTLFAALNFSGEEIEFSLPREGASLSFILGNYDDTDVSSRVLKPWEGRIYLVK
Protocol: In vitro analysis of all the synthesized compounds was performed in order to justify the validity of in silico outcomes. Results were found in good agreement with the in silico study. […] A general spectrophotometric technique was used to perform the α-glucosidase inhibition assay with slight modifications. […] The experiment was repeated thrice and inhibition percentages were calculated using the following formula. % Inhibition = [(A control − A sample) / A control] × 100(1) where ‘A’ stands for absorbance.

SARS-CoV-2 = tested on: SARS-CoV-2; set-up: method as in PMID 33160024; settings: cited from earlier work
human 11β-HSD1 = tested on: human 11β-HSD1; set-up: method as in PMID 21212546; settings: cited from earlier work

Row | SMILES | inhibition at 200 µM (α-glucosidase) | melting point | also measured
1 | O=C(O)C=C1CN(Cc2ccc(Br)cc2F)S(=O)(=O)c2ccccc21 [2-(2-(4-bromo-2-fluorobenzyl)-1,1-dioxido-2H-benzo[e][1,2]thiazin-4(3H)-ylidene)acetic acid] |  |  | IC50 (aldose-reductase): 110 nM
2 | O=C(CN1C(C(=O)c2ccc(Br)cc2)=C(O)c2ccccc2S1(=O)=O)Nc1ccccc1[N+](=O)[O-] [Compound 12g, 2-(3-(4-Bromobenzoyl)-4-hydroxy-1,1-dioxido-2H-benzo[e][1,2]thiazin-2-yl)-N-(2-nitrophenyl)acetamide] | 76% | 177 to 178 °C | IC50 (α-glucosidase): 24.2 µM
3 | O=C(CN1C(C(=O)c2ccc(Br)cc2)=C(O)c2ccccc2S1(=O)=O)Nc1cccc([N+](=O)[O-])c1 [Compound 12h, 2-(3-(4-Bromobenzoyl)-4-hydroxy-1,1-dioxido-2H-benzo[e][1,2]thiazin-2-yl)-N-(3-nitrophenyl)acetamide] | 58% | 208 to 209 °C | IC50 (α-glucosidase): > 100 µM
4 | O=C(CN1C(C(=O)c2ccc(Br)cc2)=C(O)c2ccccc2S1(=O)=O)Nc1ccc([N+](=O)[O-])cc1 [Compound 12i, 2-(3-(4-Bromobenzoyl)-4-hydroxy-1,1-dioxido-2H-benzo[e][1,2]thiazin-2-yl)-N-(4-nitrophenyl)acetamide] | 33% | 210 to 212 °C | 
5 | O=C(CN1C(C(=O)c2ccc(Br)cc2)=C(O)c2ccccc2S1(=O)=O)Nc1cccc(Br)c1 [Compound 12j, 2-(3-(4-Bromobenzoyl)-4-hydroxy-1,1-dioxido-2H-benzo[e][1,2]thiazin-2-yl)-N-(3-bromophenyl)acetamide] | 12% | 145 to 147 °C | 
6 | O=C(CN1C(C(=O)c2ccc(Br)cc2)=C(O)c2ccccc2S1(=O)=O)Nc1ccc(Br)cc1 [Compound 12k, 2-(3-(4-Bromobenzoyl)-4-hydroxy-1,1-dioxido-2H-benzo[e][1,2]thiazin-2-yl)-N-(4-bromophenyl)acetamide] | 48% | 200 to 203 °C | 
7 | COc1ccccc1NC(=O)CN1C(C(=O)c2ccc(Br)cc2)=C(O)c2ccccc2S1(=O)=O [Compound 12l, 2-(3-(4-Bromobenzoyl)-4-hydroxy-1,1-dioxido-2H-benzo[e][1,2]thiazin-2-yl)-N-(2-methoxyphenyl)acetamide] | 34% | 186 to 187 °C | 
8 | O=C(CN1C(C(=O)Nc2ccc(F)c(Cl)c2)=C(O)c2ccc(F)cc2S1(=O)=O)Nc1ccc(C(F)(F)F)cc1 [compound 4] |  |  | IC50 (SARS-CoV-2): 880 nM
9 | O=C(CN1C(C(=O)Nc2ccccc2)=C(O)c2ccccc2S1(=O)=O)Nc1cccc(C(F)(F)F)c1 [derivative 3] |  |  | IC50 (human 11β-HSD1): 41 nM
